{"source": "patent US6825217B2", "about": "“Carbinols for the treatment of neuropathic dysfunction” (Endo Pharmaceuticals, Inc., priority 2001, dated 2004)", "key": {"Safety pharmacology, dog": {"experiment": "Safety pharmacology, dog", "type": "in vivo"}, "prostaglandin synthesase": {"system": "prostaglandin synthesase", "experiment": "Prostaglandin synthesase inhibition", "type": "biochemical"}, "[1]": {"experiment": "Fourteen-day Oral Dose Range Finding Study in Rats", "type": "in vivo, rat"}, "Mouse Tail-Flick": {"experiment": "Mouse Tail-Flick", "type": "in vivo", "set-up": "key to activity in mouse Tail flick model: *: Inactive; Φ: Weakly active"}, "[2]": {"target": "T1, mu receptor sites in the brain (Homo sapiens, UniProt P35372)", "T1 construct": "mu, kappa, delta or sigma receptor sites in the brain; from tissue", "T1 sequence (P35372 whole entry)": "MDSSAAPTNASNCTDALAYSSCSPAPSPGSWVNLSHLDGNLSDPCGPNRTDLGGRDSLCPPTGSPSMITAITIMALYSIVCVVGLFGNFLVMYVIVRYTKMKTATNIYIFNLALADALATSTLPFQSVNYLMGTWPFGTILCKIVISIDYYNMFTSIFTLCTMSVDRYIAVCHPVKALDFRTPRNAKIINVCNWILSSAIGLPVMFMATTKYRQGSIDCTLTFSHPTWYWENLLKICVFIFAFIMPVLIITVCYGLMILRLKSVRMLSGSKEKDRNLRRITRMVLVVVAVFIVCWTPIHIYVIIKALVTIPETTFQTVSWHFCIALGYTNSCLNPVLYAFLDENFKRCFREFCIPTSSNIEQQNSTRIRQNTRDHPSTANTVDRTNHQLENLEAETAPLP", "experiment": "Activity at mu receptor sites in the brain", "type": "binding"}, "Bacterial Mutagenicity": {"system": "Bacterial Mutagenicity", "experiment": "In Vitro Bacterial Mutagenicity: Modified Ames Test", "type": "cell-based"}, "[3]": {"experiment": "Mouse antiphenylquinone writhing (PQW) test", "type": "in vivo", "procedure": "(§1) The anti-phenylquinone writhing (PQW) test modified from the methods of Siegmund et al. (Proc. Soc. Exp. Biol. Med. 95: 729-731, 1957) and Blumberg et al. (Proc. Exp. Biol. Med. 118: 763-767, 1965) was used to assess the relief from the simulated symptoms of neuropathic pain in mice. Male CF1 mice (Charles River Breeding Laboratories, Wilmington, Mass.), fasted for 16-22 hours and weighing 18-23 g, were injected with randomized and coded doses of test compounds, then challenged with 1.25 mg/kg i.p. phenyl-p-benzoquinone (phenylquinone) 5 minutes prior to the specified observation time. The phenylquinone solution (0.1 mg/ml in 5% aqueous ethanol) was prepared daily and stored in foil-wrapped amber bottles to limit degradation. Mice were observed 10 minutes for the presence or absence of the characteristic abdominal constriction and stretching response beginning 30 minutes after injection of the test compound. Activity was calculated as the percentage of mice failing to respond to the phenylquinone challenge dose. […] Median effective doses (ED50's) and 95% confidence limits were determined numerically by the methods of Thompson (Bacteriological Rev. 11: 115-145, 1947), and Litchfield and Wilcoxon (J. Pharmacol. Exp. Ther. 96: 99-113, 1949)."}, "Rat PQW": {"experiment": "Rat PQW", "type": "in vivo", "procedure": "as §1"}, "uptake of dopamine": {"target": "T2, uptake of dopamine (Rattus norvegicus, UniProt P23977)", "T2 construct": "dopamine in rat brain preparations; from tissue; host or cells: rat brain preparations", "T2 sequence (P23977 whole entry)": "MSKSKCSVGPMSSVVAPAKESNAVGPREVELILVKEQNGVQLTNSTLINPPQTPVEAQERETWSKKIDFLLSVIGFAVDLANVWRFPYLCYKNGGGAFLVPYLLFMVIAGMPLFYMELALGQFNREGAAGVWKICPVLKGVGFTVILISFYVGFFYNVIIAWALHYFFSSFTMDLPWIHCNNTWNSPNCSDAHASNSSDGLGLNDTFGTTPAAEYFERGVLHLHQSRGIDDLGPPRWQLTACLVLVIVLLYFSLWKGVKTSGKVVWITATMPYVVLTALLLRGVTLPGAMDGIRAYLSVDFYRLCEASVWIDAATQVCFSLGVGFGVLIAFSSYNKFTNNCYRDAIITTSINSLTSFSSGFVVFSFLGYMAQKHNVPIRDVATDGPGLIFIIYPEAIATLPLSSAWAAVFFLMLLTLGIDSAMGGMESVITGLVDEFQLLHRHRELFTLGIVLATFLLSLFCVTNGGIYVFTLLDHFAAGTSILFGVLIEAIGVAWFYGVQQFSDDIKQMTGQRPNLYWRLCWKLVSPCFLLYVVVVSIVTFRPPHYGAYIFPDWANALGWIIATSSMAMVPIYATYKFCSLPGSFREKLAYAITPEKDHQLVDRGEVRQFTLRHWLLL", "experiment": "Dopamine uptake in rat brain preparations", "type": "biochemical", "settings": "printed as 'and/or dopamine'"}, "[4]": {"experiment": "Side effects at effective doses", "type": "in vivo", "settings": "at effective doses for neuropathic pain"}, "[5]": {"target": "T3, kappa receptor sites in the brain (Homo sapiens, UniProt P41145)", "T3 construct": "mu, kappa, delta or sigma receptor sites in the brain; from tissue", "T3 sequence (P41145 whole entry)": "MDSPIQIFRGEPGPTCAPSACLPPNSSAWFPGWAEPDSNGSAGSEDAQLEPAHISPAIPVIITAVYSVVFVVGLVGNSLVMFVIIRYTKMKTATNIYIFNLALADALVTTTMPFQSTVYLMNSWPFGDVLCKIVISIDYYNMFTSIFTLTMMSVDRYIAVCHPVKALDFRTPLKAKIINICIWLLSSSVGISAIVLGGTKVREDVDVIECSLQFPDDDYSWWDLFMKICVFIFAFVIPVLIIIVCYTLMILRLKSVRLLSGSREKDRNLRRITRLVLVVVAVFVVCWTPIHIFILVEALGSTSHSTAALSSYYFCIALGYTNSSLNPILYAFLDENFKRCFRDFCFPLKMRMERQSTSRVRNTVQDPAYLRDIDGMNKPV", "experiment": "Activity at kappa receptor sites in the brain", "type": "binding"}, "[6]": {"experiment": "Abuse assay (self-administration)", "type": "in vivo, Cynomologous monkeys", "procedure": "Cynomologous monkeys are trained to self-administer drugs by pressing on a lever a certain number of times. The number of times an animal will press the lever before extinquishing in an attempt to self-administer drug is calculated as their fixed ratio (FR). For example, cynomologous monkeys that are trained to self-administer codeine will press the lever 300 times (FR 300) and or 10,000 times (FR 10,000) to obtain a dose of codeine. Cynomologous monkeys were trained to self-administer the compounds of the present invention."}, "[7]": {"experiment": "Anti-inflammatory effects in vivo"}, "Rat Randall-Selitto": {"experiment": "Rat Randall-Selitto", "type": "in vivo", "set-up": "key to activity in rat Randell-Selitto model: *: Inactive; Φ: Weakly active"}, "[8]": {"experiment": "Chung model (tactile allodynia)", "type": "in vivo, rat", "procedure": "This model for neuropathic pain was performed on rats using the surgical procedure described by Kim and Chung (1992) to induce an allodynic state. Briefly, the left L-5 and L-6 spinal nerves were isolated adjacent to the vertebral column and ligated with 6-0 silk suture distal to the dorsal root ganglion under isoflurane anesthesia. This model allows for spinal cord structural reorganization and growth of low threshold mechnoreceptor fibers from the spinal cord with synaptic connections and rewiring of the dorsal horn. This leads to spontaneous firing of invading sympathetic nerves and upregulation of receptors and voltage-dependent channels; i.e. mimics the development of allodynia (nociceptive response to a previously neutral stimulus). The rats were allowed a minimum of 7-days postoperative recovery period before testing.\nTo assess tactile thresholds in the Chung model, rats were placed in a clear plastic, wire mesh-bottomed cage, divided into individual compartments. Animals were allowed to acclimate and then baseline thresholds were assessed prior to drug treatment. To assess the 50% mechanical threshold for paw withdrawal, von Frey hairs were applied to the plantar mid-hindpaw, avoiding the tori (footpads). The eight von Frey hairs used are designated by [log (10*force required to bend hair, mg)] and range from 0.4-15.1 grams (#'s 3.61-5.18). Each hair was pressed perpendicularly against the paw with sufficient force to cause slight bending, and held for approximately 6-8 seconds. A positive response was noted if the paw was sharply withdrawn. Flinching immediately upon removal of the hair was also considered a positive response. Absence of a response (“−”) was cause to present the next consecutive stronger stimulus; a positive response (“+”) was cause to present the next weaker stimulus. Stimuli were presented successively until either six data points were collected, or the maximum or minimum stimulus was reached. If a minimum stimulus was reached and positive responses still occurred, the threshold was assigned an arbitrary minimum value of 0.25 grams; if a maximum stimulus was presented and no response occurred, a maximum threshold value of 15 grams was assigned. If a change in response occurs, either “−” to “+” or “+” to “−”, causing a change in the direction of stimulus presentation from descending to ascending or vice-versa, four additional data points were collected subsequent to the change."}, "[9]": {"experiment": "Safety pharmacology, mouse", "type": "in vivo"}, "[10]": {"system": "sigma receptor sites in the brain", "experiment": "Activity at sigma receptor sites in the brain", "type": "binding"}, "Monkey tail dip": {"experiment": "Monkey tail dip", "type": "in vivo", "settings": "unmarked entry of animal model table"}}}
{"smiles": "CN1CCC(c2ccsc2)(C(C)(C)O)CC1", "note": "[Compound A, 4-(3-thienyl)-α,α,1-trimethyl-4-piperidinemethanol]", "values": [{"measurement": "MTD", "setting": "Safety pharmacology, dog; in vivo", "result": 20, "unit": "mg/kg"}, {"measurement": "hypotension/decreased cardiac contractility, anemia, multiple of effective dose", "setting": "Safety pharmacology, dog; iv-pentobarb", "result": 10, "unit": "X"}, {"measurement": "emesis/anorexia BW loss, multiple of effective dose", "setting": "Safety pharmacology, dog; po", "result": "1-10 X"}, {"measurement": "respiratory acidosis, multiple of effective dose", "setting": "Safety pharmacology, dog; po", "result": 10, "unit": "X"}, {"measurement": "inhibition of prostaglandin synthesase activity", "setting": "prostaglandin synthesase", "result": "does not inhibit"}, {"measurement": "NOEL (exophthalamos)", "setting": "[1]", "result": "NOEL < 30 mg/kg"}, {"measurement": "NOAEL at 14 day", "setting": "[1]; rat, in vivo", "result": 100, "unit": "mg/kg"}, {"measurement": "ED50", "setting": "Mouse Tail-Flick; Mus musculus, read-out: Mouse Tail-Flick ED50", "result": 117, "unit": "mg/kg"}, {"measurement": "activity in mouse Tail flick model", "setting": "Mouse Tail-Flick; mouse", "result": "Tail flick^Φ"}, {"measurement": "activity at mu receptor sites", "setting": "[2]", "result": "does not show significant activity"}, {"measurement": "In Vitro Bacterial Mutagenicity: Modified Ames Test", "setting": "Bacterial Mutagenicity", "result": "Not mutagenic"}, {"measurement": "ED50", "setting": "[3]; Mus musculus", "result": 18, "unit": "mg/kg"}, {"measurement": "activity in mouse PQW model", "setting": "[3]; mouse, unmarked entry of animal model table", "result": "showed activity"}, {"measurement": "ED50", "setting": "Rat PQW; Rattus norvegicus", "result": 7.9, "unit": "mg/kg"}, {"measurement": "activity in rat PQW model", "setting": "Rat PQW; rat, unmarked entry of animal model table", "result": "showed activity"}, {"measurement": "uptake of dopamine", "setting": "uptake of dopamine", "result": "inhibits uptake"}, {"measurement": "anticholinergic side effects, sedation or other signs of motor impairment", "setting": "[4]", "result": "not accompanied by anticholinergic side effects, sedation or other signs of motor impairment"}, {"measurement": "activity at kappa receptor sites", "setting": "[5]", "result": "does not show significant activity"}, {"measurement": "monkeys responding following involuntary injections", "setting": "[6]; Cynomologous monkeys", "result": "two out of four monkeys"}, {"measurement": "self-administration response achieved", "setting": "[6]; Cynomologous monkeys trained to self-administer", "result": "one out of four monkeys"}, {"measurement": "anti-inflammatory effects in vivo", "setting": "[7]", "result": "does not inhibit prostaglandin synthesase activity or show anti-inflammatory effects in vivo"}, {"measurement": "ED50", "setting": "Rat Randall-Selitto; Rattus norvegicus", "result": 32, "unit": "mg/kg"}, {"measurement": "activity in rat Randell-Selitto model", "setting": "Rat Randall-Selitto; rat", "result": "Randell-Selitto^Φ"}, {"measurement": "effect upon arousal or motor function", "setting": "[8]; at doses effective in formalin and Chung models", "result": "no effect upon arousal or motor function"}, {"measurement": "effect upon tactile allodynia arising from nerve injury", "setting": "[8]; rat", "result": "reliable dose dependent effect"}, {"measurement": "effects on tactile allodynia", "setting": "[8]; rat, two hours post injection, doses 200 mg/kg and 100 mg/kg", "result": "statistically significant effects"}, {"measurement": "LD", "setting": "[9]; po", "result": "LD = 900 mg/kg-po"}, {"measurement": "cross-tolerance to morphine, multiple of effective dose", "setting": "[9]; po/iv", "result": "1-50 X"}, {"measurement": "inhibition of GI motility, multiple of effective dose", "setting": "[9]; po/iv", "result": 1, "unit": "X"}, {"measurement": "mydriasis, multiple of effective dose", "setting": "[9]; po/iv", "result": 1, "unit": "X"}, {"measurement": "activity at sigma receptor sites", "setting": "[10]", "result": "does not show significant activity"}, {"measurement": "activity in monkey Tail dip model", "setting": "Monkey tail dip", "result": "showed activity"}]}
